{"source": "patent US4313943A", "about": "“7-Chloro-2,3-dihydro-5-phenyl-1-propargyl-1H-1,4-benzodiazepine-2-one, and a pharmaceutical composition thereof” (priority 1972, dated 1982)", "key": {"[1]": {"assay": "Anti-convulsant activity in the mouse (convulsions induced by 1,5-pentamethylenetetrazole)", "assay_type": "in vivo", "settings": "30 min before pentamethylenetetrazole s.c.", "experimental": "The inhibition of convulsions induced by 1,5-pentamethylenetetrazole was tested by the Clen method. The test compounds were administered orally to the mice, in the doses shown in Table 3, in the form of suspensions in 1% sodium carboxymethyl cellulose solution, and 30 minutes later the test animals were injected subcutaneously with […] of 1,5-pentamethylenetetrazole. The number of mice protected from lethal extensorial tonic spasms, per group of 10 test animals, was recorded."}, "[2]": {"assay": "Acute toxicity in the mouse (oral)", "settings": "in vivo, mouse (male)", "experimental": "(§1) The test compounds shown in Table 2 were administered orally to male mice and rats in the form of a suspension in a 1% solution of sodium carboxymethyl cellulose. The LD50 (lethal dose 50%) was calculated by the method of Litchfield and Wilcoxon."}, "[3]": {"assay": "Acute toxicity in the rat (oral)", "settings": "in vivo", "experimental": "as §1"}, "[4]": {"assay": "Myorelaxant activity in the mouse (traction test)", "assay_type": "in vivo", "settings": "after 30 minutes", "experimental": "This was determined by the traction test of Joulon Courvoisier, following Boissier and Simon, in which the mouse is suspended by its front paws to a horizontal metal wire, and the animal's capacity to get up with its hind paws is observed. The test compounds were administered orally to the animals, in the doses shown in Table 5, as suspensions in 1% sodium carboxymethyl cellulose solution; and the animals were tested 30 minutes and 180 minutes after administration. The test animals were deemed to be myorelaxant if unable to get up within 5 seconds."}, "[5]": {"assay": "Potentiation of narcosis (hexobarbitone sodium) in the mouse, Winter method", "assay_type": "in vivo", "settings": "hexobarbitone sodium 80 mg/kg i.p., control 33.3", "experimental": "The Winter method was used, in which a state of narcosis is induced by the intraperitoneal administration of 80 mg/kg of hexobarbitone sodium, and is assessed by the loss of the righting reflex in the test animal. […] orally to the animals, in doses shown in Table 4, as suspensions in 1% sodium carboxymethyl cellulose solution; and the prolongation of narcosis in the animals thus treated was observed, by comparison with controls which received only the hexobarbitone administration."}, "[6]": {"assay": "Hypnotic activity comparison (Janssen 1959)", "assay_type": "in vivo", "settings": "Table 11; species not given", "experimental": "Toxicity in test animals to the test compounds in terms of LD50 after oral and intraperitoneal administration was determined according to the procedure of Litchfield and Wilcoxan (1949) and the hypnotic effect on test animals was determined in accordance with the method of Janssen (1959)."}, "[7]": {"assay": "Convulsions induced by pentamethylenetetrazol in rats", "assay_type": "in vivo", "experimental": "The method utilized was according to the method published by Everett and Richards (1944) and Banziger (1965). The pentamethylenetetrazol was given subcutaneously (125 mg/kg) and the test compounds were given orally suspended in a 1% carboxymethyl cellulose solution."}, "[8]": {"assay": "ECoG and sedation in test animals free to move", "assay_type": "in vivo", "settings": "unrestricted animals; compound 3 at 10 mg/kg", "experimental": "Some test animals were kept in restraint cases placed in a relatively soundproof room and some were left free to move in metal cases measuring 40×50×30 cm, which were also kept in a relatively quiet environment.\nIn the test animals which were free to move, the first signs of sedation produced by the intragastric administration of 7.5 mg/kg of compounds 1 and 4 appeared, respectively, at 16 minutes (compound 1) and at 8 minutes (compound 4). […] The duration of the effect was, however, shorter, not exceeding 3 hours under these conditions in contrast to the 5 hour minimum for restricted animals."}, "[9]": {"assay": "Electrogenesis of various subcortical centers", "assay_type": "in vivo", "settings": "in vivo", "experimental": "This study was conducted with test animals weighing between 2.6 and 2.8 kg, following the stereotaxic method of Monnier and Gangloff (Atlas et techniques stereotaxique pour le cerveau du lopin eveille, 1961, Elsevier Pub. Co.), permitting the stimulation of certain subcortical structures as well as a simultaneous detection and recording of their electrical activities, which were compared to that of reference cortical electrodes. In this study, the subcortical centers considered were the caudate nucleus, the dorsal hippocampus, the lateral thalamus, the mesenephalic reticular formation, and the hypothalamic reticular formation. Test compounds 1 and 4 were administered by the intragastric route with an identical dose of 7.5 mg/kg.\nSpontaneous activity in the subcortical centers of the unanesthetized animals is characterized by desynchronized activity consisting of high amplitude and relatively slow rhythms (4 to 5 c/sec.), alternating with low amplitude rapid rhythms (12 to 13 c/sec.). Tracings from the hippocampus and caudate nucleus sometimes takes the form of bursts, which is less commonly the case from the thalamus. These may occur at the same time as bursts of rapid spikes arising from the frontal cortex. During periods of arousal, this desynchronized activity is followed by a synchronized theta rhythm (7 to 8 c/sec.) from the hippocampus and caudate nucleus and from the median thalamus, whereas the cortical and reticular electrical activities are transformed into ultra-rapid and low voltage rhythms (30μ volts)."}, "[10]": {"assay": "Effect on muscular relaxation in mice (30° inclined screen, Randall)", "assay_type": "in vivo", "experimental": "The method utilized was the procedure described by Randall (1961) using a 30° inclined screen."}, "[11]": {"assay": "Motor coordination in rats (rotarod, Dunham and Miya 1957)", "settings": "68 mg/kg/os"}}, "note": "“Also recorded” adds a separate entry of the source.", "data": [{"smiles": "C#CCN1C(=O)CN=C(c2ccccc2)c2cc([N+](=O)[O-])ccc21", "note": "[Compound 2, 7-nitro-2,3-dihydro-5-phenyl-1-propargyl-1H-1,4-benzodiazepin-2-one]", "values": [{"measurement": "No. of Animals Protected", "setting": "[1]; 0.12 mg/kg oral", "value": "1/10"}, {"measurement": "No. of Animals Protected", "setting": "[1]; 0.25 mg/kg oral", "value": "4/10"}, {"measurement": "No. of Animals Protected", "setting": "[1]; 0.5 mg/kg oral", "value": "9/10"}, {"measurement": "LD50", "setting": "[2]", "value": 1880, "unit": "mg/kg"}, {"measurement": "LD50", "setting": "[3]", "value": 876, "unit": "mg/kg"}, {"measurement": "Percentage of myorelaxant animals", "setting": "[4]; 1.0 mg/kg oral", "value": 10, "unit": "%"}, {"measurement": "Percentage of myorelaxant animals", "setting": "[4]; 2.0 mg/kg oral", "value": 20, "unit": "%"}, {"measurement": "Percentage of myorelaxant animals", "setting": "[4]; 4.0 mg/kg oral", "value": 40, "unit": "%"}, {"measurement": "Percentage of myorelaxant animals", "setting": "[4]; 8.0 mg/kg oral", "value": 60, "unit": "%"}, {"measurement": "Duration of narcosis", "setting": "[5]; 0.5 mg/kg oral", "value": 53.4, "unit": "min"}, {"measurement": "Duration of narcosis", "setting": "[5]; 1.0 mg/kg oral", "value": 94.5, "unit": "min"}, {"measurement": "Duration of narcosis", "setting": "[5]; 2.0 mg/kg oral", "value": 195.1, "unit": "min"}]}, {"smiles": "CN1C(=O)CN=C(c2ccccc2)c2cc(Cl)ccc21", "note": "[Compound 3, 7-chloro-1,3-dihydro-1-methyl-5-phenyl-2H-1,4-benzodiazepin-2-one, reference compound]", "values": [{"measurement": "ED50", "setting": "[6]", "value": 242, "unit": "mg/kg"}, {"measurement": "ED50", "setting": "[7]; Rattus norvegicus, oral, protection against pentamethylenetetrazol, read-out: ED50 (and C.L.) (converted)", "value": 7.8, "unit": "mg/kg"}, {"measurement": "% Protected Animals", "setting": "[7]; Time 90 min.", "value": 20, "unit": "%"}, {"measurement": "% Protected Animals", "setting": "[7]; Time 120 min.", "value": 10, "unit": "%"}, {"measurement": "% Protected Animals", "setting": "[7]; Time 180 min.", "value": 0, "unit": "%"}, {"measurement": "% Protected Animals", "setting": "[7]; Time 240 min.", "value": 0, "unit": "%"}, {"measurement": "duration of ECoG effects (three compounds compared)", "setting": "[8]", "value": "about 31/2"}, {"measurement": "EEG activity of the hippocampus", "setting": "[9]; listed as Valium", "value": "depressed; also recorded: reduction in the amplitude of the hippocampal rhythm"}, {"measurement": "% Relaxed Animals", "setting": "[10]; 10 mg/kg/os", "value": 20, "unit": "%"}, {"measurement": "ED50", "setting": "[10]; Mus musculus, po, muscular relaxation, read-out: ED50 (and C.L.)", "value": 14.1, "unit": "mg/kg"}, {"measurement": "% Uncoordinated Animals", "setting": "[11]", "value": 50, "unit": "%"}]}, {"smiles": "CNC1=Nc2ccc(Cl)cc2C(c2ccccc2)=[N+]([O-])C1", "note": "[Librium, reference compound]", "values": [{"measurement": "EEG activity of the hippocampus", "setting": "[9]", "value": "depressed; also recorded: reduction in the amplitude of the hippocampal rhythm"}]}]}
